Values quoted from earlier work, collected in patent publication US11274111B2, “Arginase inhibitors and methods of use” (Merck Sharp & Dohme Corp., priority 2018, dated 2022).

Tests used:
[1] = system: corpus cavernosum of the diabetic person; conditions: ex vivo; cited from earlier work
[2] = system: opossum internal anal sphincter muscle; conditions: cited from earlier work
guinea pigs = conditions: nebulizer treatment, allergic asthma model; cited from earlier work
[3] = system: experimental autoimmune encephalomyelitis; conditions: cited from earlier work
[4] = system: rabbit and human penile corpus cavernosum; conditions: cited from earlier work
live female rabbits = conditions: cited from earlier work
live male rabbits = conditions: cited from earlier work

N[C@@H](CCCCB(O)O)C(=O)O [ABH, (S)-2-amino-6-boronohexanoic acid]
nitric oxide biosynthesis [1]: restores nitric oxide biosynthesis
relaxation of internal anal sphincter muscle [2]: relax this muscle
airway hyperresponsiveness (guinea pigs): prevents airway hyperresponsiveness
disease score [3]: improves the disease score of animals
nitric oxide-dependent relaxation of corpus cavernosum [4]: enhances the nitric oxide-dependent relaxation of this tissue
engorgement response in the genitalia (live female rabbits): enhances the engorgement response
erectile response (live male rabbits): enhances the erectile response
